Reference: patent US8785662B2, “Anilide-based compounds for preserving wood and method of use thereof” (SDS Biotech K.K., priority 2010, dated 2014)

The compounds below were run on Fomitopsis palustris (assay: Agar plate colony growth inhibition test on Fomitopsis palustris). Conditions: 0.5 ppm in potato dextrose agar, 25° C., colony diameter on the seventh day vs control.
Type: cell-based
Experimental: Each of 1% w/v dimethylsulfoxide solution of compound A, compound B and comparative compounds 1 to 13 was prepared. A predetermined amount of the solutions diluted with dimethylsulfoxide were fully mixed in the sterilized potato dextrose agar medium, and 15 ml of the resultant medium was poured into a petri dish 90 mm in diameter and allowed to stand at room temperature. As a control, the potato dextrose agar medium added with dimethylsulfoxide only was also prepared. […] The fungi was cultivated in the petri dish at 25° C., and the diameter of the colony spread from the source of inoculum was measured on the seventh day. The growth inhibition ratio between the diameter of the test colony and that of the control was determined by the following formula as an indication of the degree of inhibition. Compounds A and B apparently had greater effects on Fomitopsis palustris compared to the compounds which had been disclosed in the past. Growth inhibition ratio (%)={(diameter of the control colony−diameter of the test colony)/diameter of the control colony}×100 [Formula 1]
For Cc1cc(C(=O)Nc2cccc(C(C)C)c2)c(C(F)(F)F)o1 [Compound A, 3′-isopropyl-5-methyl-2-trifluoromethylfuran-3-carboxylic acid anilide], the “Degree of inhibition on Fomitopsis palustris at 0.5 ppm” value (“Degree of inhibition” for short) was “∘ (inhibition ratio of 75% or more)”. Cc1cc(C(=O)Nc2cccc(OC(C)C)c2)c(C(F)(F)F)o1 [Compound B, 3′-isopropoxy-5-methyl-2-trifluoromethylfuran-3-carboxylic acid anilide] was tested, and the “Degree of inhibition” value was “∘ (inhibition ratio of 75% or more)”. Cc1cc(C(=O)Nc2cccc(C(C)C)c2)c(C)o1 [compound 1, 3′-isopropyl-2,5-dimethylfuran-3-carboxylic acid anilide] was tested, and the “Degree of inhibition” value was “▴ (inhibition ratio of 25 to 50%)”. With CCc1cccc(NC(=O)c2cc(C)oc2C)c1 [compound 2, 3′-ethyl-2,5-dimethylfuran-3-carboxylic acid anilide] the “Degree of inhibition” value was “▴ (inhibition ratio of 25 to 50%)”. For Cc1cccc(NC(=O)c2cc(C)oc2C)c1 [compound 3, 3′-methyl-2,5-dimethylfuran-3-carboxylic acid anilide], the “Degree of inhibition” value was “x (inhibition ratio of 25% or less)”. CC(C)Oc1cccc(NC(=O)c2ccccc2C(F)(F)F)c1 [compound 4, 3′-isopropoxy-2-trifluoromethyl benzoic acid anilide] was tested, and the “Degree of inhibition” value was “▴ (inhibition ratio of 25 to 50%)”. Cc1ccccc1C(=O)Nc1cccc(OC(C)C)c1 [compound 5, 3′-isopropoxy-2-methylbenzoic acid anilide] was tested, and the “Degree of inhibition” value was “▴ (inhibition ratio of 25 to 50%)”. With Cc1ccccc1C(=O)Nc1cccc(C(C)C)c1 [compound 6, 3′-isopropyl-2-methylbenzoic acid anilide] the “Degree of inhibition” value was “▴ (inhibition ratio of 25 to 50%)”. In the case of CC(C)c1cccc(NC(=O)c2ccoc2)c1 [compound 7, 3′-isopropyl-3-furancarboxylic acid anilide], the “Degree of inhibition” value is reported as “x (inhibition ratio of 25% or less)”. In the case of Cc1occc1C(=O)Nc1cccc(C(C)C)c1 [compound 8, 3′-isopropyl-2-methylfuran-3-carboxylic acid anilide], the “Degree of inhibition” value is reported as “▴ (inhibition ratio of 25 to 50%)”. Cc1ncsc1C(=O)Nc1cccc(C(C)C)c1 [compound 9, 3′-isopropyl-4-methylthiazole-5-carboxylic acid anilide] was tested, and the “Degree of inhibition” value was “x (inhibition ratio of 25% or less)”. Cc1nc(C)c(C(=O)Nc2cccc(C(C)C)c2)s1 [compound 10, 3′-isopropyl-2,4-dimethyl-1,3-thiazole-5-carboxylic acid anilide] was tested, and the “Degree of inhibition” value was “Δ (inhibition ratio of 50 to 75%)”. With Cc1nc(C(F)(F)F)c(C(=O)Nc2cccc(C(C)C)c2)s1 [compound 11, 3′-isopropyl-2-methyl-4-trifluoromethyl-1,3-thiazole-5-carboxylic acid anilide] the “Degree of inhibition” value was “▴ (inhibition ratio of 25 to 50%)”. With Cc1cc(C(=O)Nc2cccc(C(C)C)c2)c(C)[nH]1 [compound 12, 3′-isopropyl-2,5-dimethylpyrrole-3-carboxylic acid anilide] the “Degree of inhibition” value was “x (inhibition ratio of 25% or less)”. With CC(C)c1cccc(NC(=O)c2cn(C)nc2C(F)(F)F)c1 [compound 13, 3′-isopropyl-1-methyl-3-trifluoromethylpyrazole-4-carboxylic acid anilide] the “Degree of inhibition” value was “▴ (inhibition ratio of 25 to 50%)”.

The compounds below were run on Trametes versicolor (assay: Agar plate colony growth inhibition test on Trametes versicolor, single compounds and mixtures with triazoles (Colby)). Conditions: single compound 0.2 ppm, potato dextrose agar, 25° C., seventh day.
Type: cell-based
Experimental: Each of 1% w/v dimethylsulfoxide solution of compound A, compound B, cyproconazole (manufactured by Wako Pure Chemical Industries, Ltd.), epoxyconazole (manufactured by Wako Pure Chemical Industries, Ltd.) and tetraconazole (manufactured by Wako Pure Chemical Industries, Ltd.) was prepared. The solutions diluted with dimethylsulfoxide were fully mixed in the sterilized potate dextrose agar medium, and 15 ml of the resultant medium was poured into a petri dish 90 mm in diameter and allowed to stand at room temperature. As a control, the potate dextrose agar medium added with dimethylsulfoxide only was also prepared. After the medium was solidified, the mycelia was scooped with the medium from the colony of Trametes versicolor as being a typical wood-decaying fungi, which had been cultivated in advance, using a cork bailer 5 mm in diameter; and inoculated in the center of the test medium. The fungi was cultivated in the petri dish at 25° C., and the diameter of the colony spread from the source of inoculum was measured on the seventh day. The growth inhibition ratio by comparing the diameter of the test colony to that of the control was determined by the above-mentioned formula as an indication of the actual measured growth inhibition ratio. The theoretical efficacy ratio of the mixture of the active ingredients (i.e. theoretical growth inhibition ratio) was determined using the following Colby's formula (R. S. Colby, Weeds 15, 20-22 (1967)) to thereby be compared with the actual-measured efficacy ratio ([…]). […] Colby's formula: E=x+y−x·y/100 [Formula 2] E: theoretical efficacy ratio (theoretical growth inhibition ratio) represented by the ratio (%) to the control when the mixture of active compound B (concentration b) and C (concentration c) was used. x: efficacy ratio (growth inhibition ratio) represented by the ratio (%) to the control when active compound B was used at a concentration of b. y: efficacy ratio (growth inhibition ratio) represented by the ratio (%) to the control when active compound C was used at a concentration of c.
For Fc1ccc([C@]2(Cn3cncn3)O[C@H]2c2ccccc2Cl)cc1 (racemic) [Epoxiconazole, epoxyconazole], the “Actual measured growth inhibition ratio (%)” value was 24%. With Cc1cc(C(=O)Nc2cccc(C(C)C)c2)c(C(F)(F)F)o1 [Compound A, 3′-isopropyl-5-methyl-2-trifluoromethylfuran-3-carboxylic acid anilide] the “Actual measured growth inhibition ratio (%)” value was 49%. In the case of Cc1cc(C(=O)Nc2cccc(OC(C)C)c2)c(C(F)(F)F)o1 [Compound B, 3′-isopropoxy-5-methyl-2-trifluoromethylfuran-3-carboxylic acid anilide], the “Actual measured growth inhibition ratio (%)” value is reported as 44%. With FC(F)C(F)(F)OCC(Cn1cncn1)c1ccc(Cl)cc1Cl (centres unmarked) [Tetraconazole, tetraconazole] the “Actual measured growth inhibition ratio (%)” value was 25%. In the case of CC(C1CC1)C(O)(Cn1cncn1)c1ccc(Cl)cc1 (centres unmarked) [cyproconazole], the “Actual measured growth inhibition ratio (%)” value is reported as 33%.
